# Experimental data from the supplement of paper PMC10307832.
# Tests used:
# Assay in all cases: relative viability (nuclei count vs DMSO), 5 days (fraction); higher = more cells survive
# [1] = system: RERF-LC-KJ
# Procedure, shortened: (§1)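 Relative viability is defined as nuclei in treated wells over nuclei in vehicle wells. Duplicate plates were run and medians reported. Lung cancer cell lines in 1536-well plates were dosed by pin tool one day after seeding, with one drug or with a fixed anchor-drug dose plus five library-drug doses (not always all listed) in √10 steps, and nuclei were counted after 5 days.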
# [2] = system: H3255
# Procedure, shortened: as §1
# [3] = system: HCC-827
# Procedure, shortened: as §1
# [4] = system: NCI-H2228
# Procedure, shortened: as §1
# [5] = system: EKVX
# Procedure, shortened: as §1
# [6] = system: NCI-H2405
# Procedure, shortened: as §1
# [7] = system: HCC-15
# Procedure, shortened: as §1
# [8] = system: NCI-H1734
# Procedure, shortened: as §1
# [9] = system: NCI-H1975
# Procedure, shortened: as §1
# [10] = system: NCI-H1755
# Procedure, shortened: as §1
# [11] = system: PC-14
# Procedure, shortened: as §1
# [12] = system: NCI-H661
# Procedure, shortened: as §1
# [13] = system: NCI-H1355
# Procedure, shortened: as §1
# [14] = system: CAL-12T
# Procedure, shortened: as §1
# [15] = system: NCI-H322M
# Procedure, shortened: as §1
# [16] = system: NCI-H1650
# Procedure, shortened: as §1
# [17] = system: LCLC-97TM1
# Procedure, shortened: as §1
# [18] = system: NCI-H520
# Procedure, shortened: as §1
# [19] = system: LK-2
# Procedure, shortened: as §1
# [20] = system: PC-3 [JPC-3]
# Procedure, shortened: as §1
# [21] = system: NCI-H1563
# Procedure, shortened: as §1
smiles,measurement,setting,value
O=c1cc(-c2cccc3c2Sc2ccccc2S3)oc(N2CCOCC2)c1 + CS(=O)(=O)CCNCc1ccc(-c2ccc3ncnc(Nc4ccc(OCc5cccc(F)c5)c(Cl)c4)c3c2)o1 [Lapatinib] (partner 2 µM),relative viability,[1]; first compound 0.08 µM,0.836
same,relative viability,[1]; first compound 0.253 µM,0.998
same,relative viability,[1]; first compound 0.8 µM,0.876
same,relative viability,[1]; first compound 2.53 µM,0.907
same,relative viability,[1]; first compound 8 µM,0.98
same,relative viability,[2]; first compound 0.08 µM,0.239
same,relative viability,[2]; first compound 0.253 µM,0.226
same,relative viability,[2]; first compound 0.8 µM,0.224
same,relative viability,[2]; first compound 2.53 µM,0.231
same,relative viability,[2]; first compound 8 µM,0.225
same,relative viability,[3]; first compound 0.08 µM,0.189
same,relative viability,[3]; first compound 0.253 µM,0.196
same,relative viability,[3]; first compound 0.8 µM,0.168
same,relative viability,[3]; first compound 2.53 µM,0.189
same,relative viability,[3]; first compound 8 µM,0.178
same,relative viability,[4]; first compound 0.08 µM,1.02
same,relative viability,[4]; first compound 0.253 µM,1.5
same,relative viability,[4]; first compound 0.8 µM,0.912
same,relative viability,[4]; first compound 2.53 µM,0.891
same,relative viability,[4]; first compound 8 µM,1.1
same,relative viability,[5]; first compound 0.08 µM,0.226
same,relative viability,[5]; first compound 0.253 µM,0.186
same,relative viability,[5]; first compound 0.8 µM,0.166
same,relative viability,[5]; first compound 2.53 µM,0.186
same,relative viability,[5]; first compound 8 µM,0.202
same,relative viability,[6]; first compound 0.08 µM,0.928
same,relative viability,[6]; first compound 0.253 µM,1.1
same,relative viability,[6]; first compound 0.8 µM,1.02
same,relative viability,[6]; first compound 2.53 µM,0.937
same,relative viability,[6]; first compound 8 µM,1.02
same,relative viability,[7]; first compound 0.08 µM,0.885
same,relative viability,[7]; first compound 0.253 µM,1.02
same,relative viability,[7]; first compound 0.8 µM,0.873
same,relative viability,[7]; first compound 2.53 µM,0.82
same,relative viability,[7]; first compound 8 µM,0.988
same,relative viability,[8]; first compound 0.08 µM,1.07
same,relative viability,[8]; first compound 0.253 µM,1.55
same,relative viability,[8]; first compound 0.8 µM,1.12
same,relative viability,[8]; first compound 2.53 µM,0.79
same,relative viability,[8]; first compound 8 µM,1.51
same,relative viability,[9]; first compound 0.08 µM,0.827
same,relative viability,[9]; first compound 0.253 µM,1.06
same,relative viability,[9]; first compound 0.8 µM,0.894
same,relative viability,[9]; first compound 2.53 µM,0.794
same,relative viability,[9]; first compound 8 µM,0.973
same,relative viability,[10]; first compound 0.08 µM,1.09
same,relative viability,[10]; first compound 0.253 µM,1.06
same,relative viability,[10]; first compound 0.8 µM,1.15
same,relative viability,[10]; first compound 2.53 µM,1.03
same,relative viability,[10]; first compound 8 µM,1.08
same,relative viability,[11]; first compound 0.08 µM,0.291
same,relative viability,[11]; first compound 0.253 µM,0.388
same,relative viability,[11]; first compound 0.8 µM,0.245
same,relative viability,[11]; first compound 2.53 µM,0.245
same,relative viability,[11]; first compound 8 µM,0.308
same,relative viability,[12]; first compound 0.08 µM,0.481
same,relative viability,[12]; first compound 0.253 µM,0.412
same,relative viability,[12]; first compound 0.8 µM,0.543
same,relative viability,[12]; first compound 2.53 µM,0.464
same,relative viability,[12]; first compound 8 µM,0.579
same,relative viability,[13]; first compound 0.08 µM,0.963
same,relative viability,[13]; first compound 0.253 µM,1.15
same,relative viability,[13]; first compound 0.8 µM,0.799
same,relative viability,[13]; first compound 2.53 µM,0.956
same,relative viability,[13]; first compound 8 µM,1.05
same,relative viability,[14]; first compound 0.08 µM,0.501
same,relative viability,[14]; first compound 0.253 µM,0.646
same,relative viability,[14]; first compound 0.8 µM,0.595
same,relative viability,[14]; first compound 2.53 µM,0.551
same,relative viability,[14]; first compound 8 µM,0.564
same,relative viability,[15]; first compound 0.08 µM,0.64
same,relative viability,[15]; first compound 0.253 µM,0.768
same,relative viability,[15]; first compound 0.8 µM,0.529
same,relative viability,[15]; first compound 2.53 µM,0.564
same,relative viability,[15]; first compound 8 µM,0.607
same,relative viability,[16]; first compound 0.08 µM,0.687
same,relative viability,[16]; first compound 0.253 µM,0.917
same,relative viability,[16]; first compound 0.8 µM,0.717
same,relative viability,[16]; first compound 2.53 µM,0.84
same,relative viability,[16]; first compound 8 µM,0.847
same,relative viability,[17]; first compound 0.08 µM,0.753
same,relative viability,[17]; first compound 0.253 µM,0.781
same,relative viability,[17]; first compound 0.8 µM,1.25
same,relative viability,[17]; first compound 2.53 µM,0.685
same,relative viability,[17]; first compound 8 µM,1.18
same,relative viability,[18]; first compound 0.08 µM,0.767
same,relative viability,[18]; first compound 0.253 µM,1.13
same,relative viability,[18]; first compound 0.8 µM,0.973
same,relative viability,[18]; first compound 2.53 µM,0.787
same,relative viability,[18]; first compound 8 µM,0.961
same,relative viability,[19]; first compound 0.08 µM,0.86
same,relative viability,[19]; first compound 0.253 µM,1
same,relative viability,[19]; first compound 0.8 µM,0.997
same,relative viability,[19]; first compound 2.53 µM,0.918
same,relative viability,[19]; first compound 8 µM,1.21
same,relative viability,[20]; first compound 0.08 µM,0.44
same,relative viability,[20]; first compound 0.253 µM,0.497
same,relative viability,[20]; first compound 0.8 µM,0.435
same,relative viability,[20]; first compound 2.53 µM,0.437
same,relative viability,[20]; first compound 8 µM,0.532
same,relative viability,[21]; first compound 0.08 µM,0.872
same,relative viability,[21]; first compound 0.253 µM,0.978
same,relative viability,[21]; first compound 0.8 µM,0.9
same,relative viability,[21]; first compound 2.53 µM,0.934
same,relative viability,[21]; first compound 8 µM,0.891
